Assay results: patent publication US6265423A, “Aromatic polycyclic retinoid-type derivatives, method for preparing same, and use thereof for making pharmaceutical and cosmetic compositions” (priority 1996, dated 2001)
Entries after “also recorded” stand apart in the source; their conditions may differ. Read-outs that look alike come from different tables or passages of the source.

Tests used:
Type in all cases: cell-based
[1] = tested on: RARE, endogenic RAR and RXR receptors, HRL+N lineage; assay: HRL+N transactivation (RARE-luciferase, stably transfected HeLa); set-up: Emax: dose or concentration left out as unconfirmed; details: for Emax: Homo sapiens, HeLa
Protocol: MCF-7 cells and HeLa are cultivated in DMFM with phenol red to which 5% foetal calf serum is added. The T47-D cells are cultivated in RPMI to which 10% foetal calf serum is added. The experimental tests are carried out in DMEM without phenol red to which foetal calf serum treated with dextran carbon is added at 3%. […] The experiments using the different retinoids are carried out sheltered from the light so as to avoid any isomerisation.
Certain properties of the retinoids have been determined using more developed cellular models. These models consist of cellular lineages transfected in a stable fashion by recombinant plasmids which place the expression of the gene of the luciferase under the control of different nuclear response elements. […] The tests carried out in duplicate are described below for each of these models.
The cellular lineages HRLN and HRL+N allow one to study the activation of an RARE by endogenic receptors using ligands at physiological concentrations. These lineages derive from HeLa cells transfected in a stable fashion by a reporter gene which places the expression of the gene of the luciferase under the control of a nuclear response element RARE (RARE3 -tk-Luc). The HeLa cells express all the known receptors of the retinoic acid (RARα,β,γ and RXRα,β,γ) with a predominance of RARα and RXRα. The response element RARE used for the HRLN cells corresponds to the sequence of the natural gene of the RARβ receptor (GGTTCAnnnnnAGTTCA). The HRL+N cells comprise the sequence GAGTGAnnnnnCGGTGA.
The HRL+N lineage allows one to visualise a co-activation of the RAR and RXR receptors at the level of the RAR-RXR hetero-dimer.

[2] = tested on: Gal4-RARβ; assay: Transactivation, chimerical receptor Gal4-RARβ (transitory transfection of HeLa); details: 100% = TTNPB 10^-8 M
[3] = tested on: ZR-75-1 human mammary cancer cells; assay: MTT test, proliferation of ZR-75-1; details: for activity at 100 µM / activity at 1 µM / activity at 0.01 µM: Homo sapiens, read-out: level of proliferation; for effect on cellular increase, ZR-75-1 (in words): MTT test
Procedure, shortened: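 Cells grown at 37° C in MEM/5% FCS were plated for 24 h, then treated at 10^-8, 10^-6 or 10^-4 M. Each condition was run in 6 duplicates.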

[4] = tested on: RARγ-ERcassette; assay: Transactivation, chimerical receptor RARγ-ERcassette (HeLa); details: TTNPB 10^-8 M = 100
From the text: (§1) The HeLa cells are co-transfected by a plasmid which codes for a retinoic receptor in which the C domain of bonding to the DNA is substituted by that of the receptor to RE oestrogens, and a plasmid which places the expression of the luciferase under the control of an ERE (Element of Response to Oestrogens). The expressed chimerical receptors are designated as RARα-ERcassette, RARβ-ERcassette, RARγ-ERcassette and RXRα-ERcassette. The A, B, D, E and F regions of the natural receptor are preserved as well as the transcriptional co-operation between the activation domains AF-1 and AF-2. These transitory transfection experiments follow the method of co-precipitation to calcium phosphate. The HeLa cells are co-transfected by […] of plasmid coding for the chimerical receptor, […] of reporter plasmid and […] of expression vector CMV-β-galactosidase used as an internal control of transfection. 24 hours after the transfection, the cells are incubated for 16 hours with the different effectors.
(§2) In this type of chimerical receptor, the C domain of bonding to the DNA of RAR is substituted by that of the receptor to the RE oestrogens. The protein obtained is close to the natural RAR receptor and preserves the transcriptional properties of the AF-1 and AF-2 domains. It modulates the transcription by means of an ERE. This RAR-ERcassette model allows one to observe a transcriptional response to a more physiological ligand.

[5] = tested on: RARα-ERcassette; assay: Transactivation, chimerical receptor RARα-ERcassette (HeLa); details: TTNPB 10^-8 M = 100
From the text: as §1, §2

[6] = tested on: RAR and RXR receptors; assay: RAR/RXR activity profile drawn from the models
From the text: The reference molecules have allowed one to show the effectiveness and the complementary nature of the different models used and lead to the following conclusions: chimerical constructions GAL-RAR and RAR-ERcassette allow the determination of the RAR agonist profile of molecules, but also an RXR agonist activity with RAR-ERcassette, the HRLN lineage mainly conveys the activity of a compound mediated by endogenic RARα, the HRL+N lineage also provides evidence of an RXR agonist activity of the retinoids, the anti-oestrogenic effect of the retinoids (oestrogen-induced cellular proliferation and MELN lineage) is mediated by RARα, the anti-AP-1 effect is mediated in the MCF-7 cells (MTLN lineage) by RARα, RARγ and RXRα, and an additive effect exists between the RAR and RXR routes.

[7] = read-out: HRL+N transactivation, E max (Table 27)
[8] = ZR-75-1, 10^-4 M, 72 h, control = 100%
[9] = ZR-75-1, 10^-6 M, 72 h, control = 100%
[10] = ZR-75-1, 10^-8 M, 72 h, control = 100%

RAR/RXR activity profile (in words) [6]	Structure (SMILES)	HRL+N transactivation (in words) [1]	Emax [1, 7]	GAL4-RAR RARβ transactivation ([2]; 10^-7 M)	activity at 100 µM [3, 8]	activity at 1 µM [3, 9]	activity at 0.01 µM [3, 10]	RAR-ERcassette RARγ transactivation ([4]; 10^-6 M)	RAR-ERcassette RARγ transactivation ([4]; 10^-7 M)	RAR-ERcassette RARγ transactivation ([4]; 10^-8 M)	RAR-ERcassette RARα transactivation ([5]; 10^-6 M)	RAR-ERcassette RARα transactivation ([5]; 10^-7 M)	RAR-ERcassette RARα transactivation ([5]; 10^-8 M)	GAL4-RAR RARβ transactivation ([2]; 10^-6 M)	also measured
	C/C(=C/c1ccc2c(c1)C(C)(C)CCC2(C)C)c1ccc(C(=O)O)cc1 [CB28628, reference compound]	induces a transactivation maximum greater than that of TTNPB	158%	102%	19.4%	83.5%	80.8%	92%	87%	55%	179%	95%	35%		
panagonistic	CC1(C)CCC(C)(C)c2cc(/C=C(\c3ccc(C(=O)O)cc3)C(F)(F)F)ccc21 [CB36493, (E) 4-[1-trifluoromethyl-2-(5,6,7,8-tetrahydro-5,5,8,8-tetramethyl-2-naphthalenyl)-1-ethenyl]benzoic acid]				8.6%	108%	108%	26%	5%	0%	91%	15%	1%	44%	
	CC1=C(/C=C/C(C)=C/C=C/C(C)=C/C(=O)O)C(C)(C)CCC1 [CB16178, all-trans retinoic acid, reference compound]			93%	7.3%	57.2%	46.9%	189%	122%	114%	443%	249%	127%	92%	Emax ([1]; read-out: HRL+N transactivation, Emax): 225%; GAL4-RAR RARβ transactivation ([2]; 10^-8 M): 104%; effect on cellular increase, ZR-75-1 (in words) [3]: inhibit the cellular increase of the two mammary lineages at the concentrations tested; RAR-ERcassette RARγ transactivation ([4]; 10^-9 M): 86%; RAR-ERcassette RARα transactivation ([5]; 10^-9 M): 65%
RXR specific activity	CC1(C)CCC(C)(C)c2cc(/C=C(\c3ccc(-c4nnn[nH]4)cc3)C(F)(F)F)ccc21 [CB77402, (E) 5-[4-[1-trifluoromethyl-2-(5,6,7,8-tetrahydro-5,5,8,8-tetramethyl-2-naphthalenyl)-1-ethenyl]phenyl]-1H-tetrazole]	weak transactivation, less than that of TTNPB; also recorded: with a specific RAR agonist induces a stronger transactivation than that observed for each compound tested separately	33%		7.5%	96.6%	99.9%	8%	0%	0%	8%	1%	0%	0%	
	C/C(=C\c1ccc2c(c1)C(C)(C)CCC2(C)C)c1ccc(C(=O)Nc2nnn[nH]2)cc1 [CB73364]				0%	101%	119%	78%			74%				
	C/C(=C\c1cc2c(cc1C)C(C)(C)CCC2(C)C)c1ccc(C(=O)O)cc1 [CB71802]				7.8%	96%	101%								
panagonistic	C/C(=C/c1ccc2c(c1)C(C)(C)CCC2(C)C)c1ccc(C(=O)O)nc1 [CB16279, (Z) 5-[1-(5,6,7,8-tetrahydro-5,5,8,8-tetramethyl-2-naphthalenyl)-2-propenyl]pyridinyl-2-carboxylic acid]	bring about a transactivation greater than RAR selective agonists (TTNPB)						71%	15%		60%	6%		47%	
	CC(C=C/C=C(C)\C=C\C1=C(C)CCCC1(C)C)=CC(=O)O [CB13407, 9-cis retinoic acid, reference compound]				39.2%	130%	137%	157%	108%	56%	348%	187%	60%		effect on cellular increase, ZR-75-1 (in words) [3]: stimulates the cellular increase at 10^-6 M and 10^-8 M; RAR-ERcassette RARγ transactivation ([4]; 10^-9 M): 11%; RAR-ERcassette RARα transactivation ([5]; 10^-9 M): 7%
panagonistic	C/C(=C/c1ccc2c(c1)C(C)(C)CCC2(C)C)c1ccc(C(=O)O)cn1 [CB38416, (Z) 2-[1-(5,6,7,8-tetrahydro-5,5,8,8-tetramethyl-2-naphthalenyl)-2-propenyl]pyridinyl-5-carboxylic acid]	bring about a transactivation greater than RAR selective agonists (TTNPB)	131%		55.8%	98.3%	122%	62%	14%	4%	65%	7%	0%	51%	
	Cc1cc2c(cc1C(=O)c1ccc(C(=O)O)cc1)C(C)(C)CCC2(C)C [LGD-CB14499, reference compound]	induce a stronger transactivation with the HRL+N cells		1%				66%	31%	13%	42%	12%	4%	9%	GAL4-RAR RARβ transactivation ([2]; 10^-8 M): 0%; activity at 0.01 µM ([3]; ZR-75-1, 72 h): 107%; activity at 1 µM ([3]; ZR-75-1, 72 h): 104%; activity at 100 µM ([3]; ZR-75-1, 72 h): 42.4%
